Source: US20250064888A1, “COMPOSITIONS AND METHODS FOR TREATING CYTOKINE STORM” (SHENZHEN HIGHTIDE BIOPHARMACEUTICAL LTD., priority 2022, published 2025)
Marks after values point to notes of the source that are not given here.

Tested on: LPS-induced mice model
Assay: Survival rate in LPS-induced mice model
Format: in vivo, C57BL/6J mice
Settings: G6 positive control, 4 mg/kg/day ig; for survival rate: first dose 1 h before LPS
Experimental: Male SPF C57BL/6J mice (6-8 weeks old with body weight about 18-20 g) used in the study were purchased from Shanghai SLAC Laboratory Animal Co., Ltd. All the care and use of animals followed 3R principles and relevant regulations.
One hundred (100) male C57BL/6J mice (18-20 g) were used for the study. After acclimated for 7 days, the inflammation mice model, which is characterized by a severe acute systemic inflammation response was established by a single tail vein injection of LPS (30 mg/kg).
The model animals were randomly divided into 7 groups: vehicle control group (G0), test group 1 (G1)˜test group 5 (G5) and positive control group (G6), of which there were 15 mice/group in G0˜G5 and 10 mice/group in G6. Day 1 was defined as the day on which tail vein injection of LPS (30 mg/kg), treatment start from the same day of the model establishment (Day 1) through Day 5 for consecutive 5 days (120 h after LPS induction). Except for the first dose on Day1 which were set at 5 min before LPS injection, 5 min after LPS injection, 1 hour before LPS injection and 1 hour after LPS injection respectively (Detailed information see the administration schedule in table 1), each groups have the same time schedules for administration (8 h after LPS injection for the second dose and bid with once in the morning, once in the evening for the following days). Vehicle and API were administered by back subcutaneous injection, DEX was administered by gavage.
Graphpad 8.0 software was used for data analysis. Log-rank (Mantel-Cox) test was used for statistical analysis of the survival rate between each treatment group and vehicle control group.

Compound: C[C@@H]1C[C@H]2[C@@H]3CCC4=CC(=O)C=C[C@]4(C)[C@@]3(F)[C@@H](O)C[C@]2(C)[C@@]1(O)C(=O)CO [DEX, Dexamethasone]
- survival rate (8 h): 100.0%
- survival rate (16 h): 100.0%
- survival rate (24 h): 100.0%
- survival rate (48 h): 90.0%
- survival rate (72 h): 90.0%
- survival rate (120 h): 90.0%**
- mice died until 72 h after LPS injection (10 mice/group): 1 mouse
